# Test results: patent US12043632B2, “6-heteroaryloxy benzimidazoles and azabenzimidazoles as JAK2 inhibitors” (Ajax Therapeutics, Inc., priority 2020, dated 2024)
# pKd: −log10 of the molar value.
# Biological target: T1, JAK2 (JH1domain-catalytic, Y1007F,Y1008F) kinase (Homo sapiens, UniProt O60674, Y1007F/Y1008F)
# T1 construct: JAK2 (JH1domain-catalytic, Y1007F,Y1008F) kinase was expressed as N-terminal fusion; made in house; host or cells: transiently transfected HEK293 cells
# Test: JAK2 JH1 Domain Binding Assay
# Settings: qPCR readout
# T1 sequence (O60674 849-1124 Y1007F/Y1008F limits assumed): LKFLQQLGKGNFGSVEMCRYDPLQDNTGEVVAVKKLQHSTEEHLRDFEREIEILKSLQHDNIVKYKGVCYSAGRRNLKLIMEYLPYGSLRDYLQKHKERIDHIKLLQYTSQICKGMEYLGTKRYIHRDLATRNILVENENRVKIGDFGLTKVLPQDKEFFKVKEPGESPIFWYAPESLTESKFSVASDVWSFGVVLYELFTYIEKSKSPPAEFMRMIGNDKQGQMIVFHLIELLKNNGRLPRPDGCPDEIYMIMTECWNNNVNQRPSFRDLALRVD
row,pKd,SMILES
1,> 8.00,"COC1CCN(Cc2cc(Nc3nc4ncc(Oc5cnn6ccncc56)c(Cl)c4n3C)cc(C(F)(F)F)c2)CC1 [Example I-198, 7-chloro-N-(3-((4-methoxypiperidin-1-yl)methyl)-5-(trifluoromethyl)phenyl)-1-methyl-6-(pyrazolo[1,5-a]pyrazin-3-yloxy)-1H-imidazo[4,5-b]pyridin-2-amine]"
2,> 8.00,"CNc1nccn2ncc(Oc3cnc4nc(Nc5cc(C6CC6)nn(C)c5=O)n(C)c4c3Cl)c12 [Example I-199, 4-((7-chloro-1-methyl-6-((4-(methylamino)pyrazolo[1,5-a]pyrazin-3-yl)oxy)-1H-imidazo[4,5-b]pyridin-2-yl)amino)-6-cyclopropyl-2-methylpyridazin-3(2H)-one]"
3,7.30 to 8.00,"Cn1c(C#N)c(C(F)(F)F)cc(Nc2nc3ncc(Oc4cnn5ccncc45)c(Cl)c3n2C)c1=O [Example I-200, 5-((7-chloro-1-methyl-6-(pyrazolo[1,5-a]pyrazin-3-yloxy)-1H-imidazo[4,5-b]pyridin-2-yl)amino)-1-methyl-6-oxo-3-(trifluoromethyl)-1,6-dihydropyridine-2-carbonitrile]"
4,> 8.00,"CNc1nccn2ncc(Oc3cnc4nc(Nc5cc(C(F)(F)C(F)(F)F)cn(C)c5=O)n(C)c4c3Cl)c12 [Example I-201, 3-((7-chloro-1-methyl-6-((4-(methylamino)pyrazolo[1,5-a]pyrazin-3-yl)oxy)-1H-imidazo[4,5-b]pyridin-2-yl)amino)-1-methyl-5-(perfluoroethyl)pyridin-2(1H)-one]"
5,> 8.00,"CNc1nccn2ncc(Oc3cnc4nc(Nc5cc(C(F)(F)F)cn(C(C)C)c5=O)n(C)c4c3Cl)c12 [Example I-202, 3-((7-chloro-1-methyl-6-((4-(methylamino)pyrazolo[1,5-a]pyrazin-3-yl)oxy)-1H-imidazo[4,5-b]pyridin-2-yl)amino)-1-isopropyl-5-(trifluoromethyl)pyridin-2(1H)-one]"
6,7.30 to 8.00,"Cn1c(Nc2cnc(N3CCC3)c(C(F)(F)F)c2)nc2ncc(Oc3cnn4ccncc34)c(Cl)c21 [Example I-203, N-(6-(azetidin-1-yl)-5-(trifluoromethyl)pyridin-3-yl)-7-chloro-1-methyl-6-(pyrazolo[1,5-a]pyrazin-3-yloxy)-1H-imidazo[4,5-b]pyridin-2-amine]"
7,> 8.00,"Cn1c(Nc2cc(CN3CC[C@@H](O)C3)cc(C(F)(F)F)c2)nc2ncc(Oc3cnn4ccncc34)c(Cl)c21 [Example I-204, (R)-1-(3-((7-chloro-1-methyl-6-(pyrazolo[1,5-a]pyrazin-3-yloxy)-1H-imidazo[4,5-b]pyridin-2-yl)amino)-5-(trifluoromethyl)benzyl)pyrrolidin-3-ol]"
8,> 8.00,"Cn1c(Nc2cc(CN3CC[C@H](O)C3)cc(C(F)(F)F)c2)nc2ncc(Oc3cnn4ccncc34)c(Cl)c21 [Example I-205, (S)-1-(3-((7-chloro-1-methyl-6-(pyrazolo[1,5-a]pyrazin-3-yloxy)-1H-imidazo[4,5-b]pyridin-2-yl)amino)-5-(trifluoromethyl)benzyl)pyrrolidin-3-ol]"
9,> 8.00,"CN1CCC(Oc2cc(Nc3nc4ncc(Oc5cnn6ccncc56)c(Cl)c4n3C)cc(C(F)(F)F)c2)CC1 [Example I-206, 7-chloro-1-methyl-N-(3-((1-methylpiperidin-4-yl)oxy)-5-(trifluoromethyl)phenyl)-6-(pyrazolo[1,5-a]pyrazin-3-yloxy)-1H-imidazo[4,5-b]pyridin-2-amine]"
10,> 8.00,"Cn1c(Nc2ccc(CN3CCN(CCO)CC3)c(C(F)(F)F)c2)nc2ncc(Oc3cnn4ccncc34)c(Cl)c21 [Example I-207, 2-(4-(4-((7-chloro-1-methyl-6-(pyrazolo[1,5-a]pyrazin-3-yloxy)-1H-imidazo[4,5-b]pyridin-2-yl)amino)-2-(trifluoromethyl)benzyl)piperazin-1-yl)ethan-1-ol]"
11,6.00 to 7.30,"Cn1c(Nc2ccc(CN3CCN(CC(F)F)CC3)c(C(F)(F)F)c2)nc2ncc(Oc3cnn4ccncc34)c(Cl)c21 [Example I-208, 7-chloro-N-(4-((4-(2,2-difluoroethyl)piperazin-1-yl)methyl)-3-(trifluoromethyl)phenyl)-1-methyl-6-(pyrazolo[1,5-a]pyrazin-3-yloxy)-1H-imidazo[4,5-b]pyridin-2-amine]"
12,7.30 to 8.00,"CN1CC[C@@H](Oc2cc(Nc3nc4ncc(Oc5cnn6ccncc56)c(Cl)c4n3C)cc(C(F)(F)F)c2)C1 [Example I-209, (R)-7-chloro-1-methyl-N-(3-((1-methylpyrrolidin-3-yl)oxy)-5-(trifluoromethyl)phenyl)-6-(pyrazolo[1,5-a]pyrazin-3-yloxy)-1H-imidazo[4,5-b]pyridin-2-amine]"
13,> 8.00,"CN1CC[C@H](Oc2cc(Nc3nc4ncc(Oc5cnn6ccncc56)c(Cl)c4n3C)cc(C(F)(F)F)c2)C1 [Example I-210, (S)-7-chloro-1-methyl-N-(3-((1-methylpyrrolidin-3-yl)oxy)-5-(trifluoromethyl)phenyl)-6-(pyrazolo[1,5-a]pyrazin-3-yloxy)-1H-imidazo[4,5-b]pyridin-2-amine]"
14,> 8.00,"COc1c(Oc2cnn3ccnc(OC)c23)cnc2nc(Nc3cc(C4CC4)cn(C)c3=O)n(C)c12 [Example I-211, 5-cyclopropyl-3-((7-methoxy-6-((4-methoxypyrazolo[1,5-a]pyrazin-3-yl)oxy)-1-methyl-1H-imidazo[4,5-b]pyridin-2-yl)amino)-1-methylpyridin-2(1H)-one]"
15,> 8.00,"Cn1cc(C(F)(F)F)cc(Nc2nc3ncc(Oc4cnn5ccccc45)c(C#N)c3n2C)c1=O [Example I-212, 1-methyl-2-((1-methyl-2-oxo-5-(trifluoromethyl)-1,2-dihydropyridin-3-yl)amino)-6-(pyrazolo[1,5-a]pyridin-3-yloxy)-1H-imidazo[4,5-b]pyridine-7-carbonitrile]"
16,7.30 to 8.00,"Cn1c(Nc2cc(C(F)(F)F)cn([C@H]3C[C@@H](O)C3)c2=O)nc2ncc(Oc3cnn4ccc(F)cc34)c(Cl)c21 [Example I-213, cis-3-((7-chloro-6-((5-fluoropyrazolo[1,5-a]pyridin-3-yl)oxy)-1-methyl-1H-imidazo[4,5-b]pyridin-2-yl)amino)-1-(3-hydroxycyclobutyl)-5-(trifluoromethyl)pyridin-2(1H)-one]"
17,> 8.00,"CNc1nccn2ncc(Oc3cnc4nc(Nc5cc(C(F)(F)F)cn([C@H]6C[C@@H](O)C6)c5=O)n(C)c4c3Cl)c12 [Example I-214, 3-((7-chloro-1-methyl-6-((4-(methylamino)pyrazolo[1,5-a]pyrazin-3-yl)oxy)-1H-imidazo[4,5-b]pyridin-2-yl)amino)-1-((1s,3s)-3-hydroxycyclobutyl)-5-(trifluoromethyl)pyridin-2(1H)-one]"
18,> 8.00,"CN(C)Cc1cc(F)c(Nc2nc3ncc(Oc4cnn5ccncc45)c(Cl)c3n2C)cc1C(F)(F)F [Example I-215, 7-chloro-N-(4-((dimethylamino)methyl)-2-fluoro-5-(trifluoromethyl)phenyl)-1-methyl-6-(pyrazolo[1,5-a]pyrazin-3-yloxy)-1H-imidazo[4,5-b]pyridin-2-amine]"
19,7.30 to 8.00,"CNc1nccn2ncc(Oc3cnc4nc(Nc5ccc(CN6CC(C#N)C6)c(C(F)(F)F)c5)n(C)c4c3Cl)c12 [Example I-216, 1-(4-((7-chloro-1-methyl-6-((4-(methylamino)pyrazolo[1,5-a]pyrazin-3-yl)oxy)-1H-imidazo[4,5-b]pyridin-2-yl)amino)-2-(trifluoromethyl)benzyl)azetidine-3-carbonitrile]"
20,> 8.00,"[2H]C([2H])([2H])n1cc(C(F)(F)F)cc(Nc2nc3ncc(Oc4cnn5ccnc(NC)c45)c(Cl)c3n2C)c1=O [Example I-217, 3-((7-chloro-1-methyl-6-((4-(methylamino)pyrazolo[1,5-a]pyrazin-3-yl)oxy)-1H-imidazo[4,5-b]pyridin-2-yl)amino)-1-(methyl-d3)-5-(trifluoromethyl)pyridin-2(1H)-one]"
21,> 8.00,"CN1CC(Oc2cc(Nc3nc4ncc(Oc5cnn6ccncc56)c(Cl)c4n3C)cc(C(F)(F)F)c2)C1 [Example I-218, 7-chloro-1-methyl-N-(3-((1-methylazetidin-3-yl)oxy)-5-(trifluoromethyl)phenyl)-6-(pyrazolo[1,5-a]pyrazin-3-yloxy)-1H-imidazo[4,5-b]pyridin-2-amine]"
22,7.30 to 8.00,"CNc1nccn2ncc(Oc3cnc4nc(Nc5cc(-n6cnc(C)c6)cc(C(F)(F)F)c5)n(C)c4c3Cl)c12 [Example I-219, 7-chloro-1-methyl-N-(3-(4-methyl-1H-imidazol-1-yl)-5-(trifluoromethyl)phenyl)-6-((4-(methylamino)pyrazolo[1,5-a]pyrazin-3-yl)oxy)-1H-imidazo[4,5-b]pyridin-2-amine]"
23,7.30 to 8.00,"CNc1nccn2ncc(Oc3cnc4nc(Nc5cc(N6CCN(C)CC6)cc(C(F)(F)F)c5)n(C)c4c3Cl)c12 [Example I-220, 7-chloro-1-methyl-6-((4-(methylamino)pyrazolo[1,5-a]pyrazin-3-yl)oxy)-N-(3-(4-methylpiperazin-1-yl)-5-(trifluoromethyl)phenyl)-1H-imidazo[4,5-b]pyridin-2-amine]"
24,7.30 to 8.00,"CNc1nccn2ncc(Oc3cnc4nc(Nc5cc(C(F)(F)F)cn(C)c5=O)n(C)c4c3)c12 [Example I-221, 1-methyl-3-((1-methyl-6-((4-(methylamino)pyrazolo[1,5-a]pyrazin-3-yl)oxy)-1H-imidazo[4,5-b]pyridin-2-yl)amino)-5-(trifluoromethyl)pyridin-2(1H)-one]"
25,7.30 to 8.00,CNc1nccn2ncc(Oc3cnc4nc(Oc5cc(C6CC6)cn(C(C)C)c5=O)n(C)c4c3Cl)c12 [Example I-222]
26,> 8.00,"CNc1nccn2ncc(Oc3cnc4nc(Nc5cc(C(F)(F)F)c[nH]c5=O)n(C)c4c3Cl)c12 [Example I-223, 3-((7-chloro-1-methyl-6-((4-(methylamino)pyrazolo[1,5-a]pyrazin-3-yl)oxy)-1H-imidazo[4,5-b]pyridin-2-yl)amino)-5-(trifluoromethyl)pyridin-2(1H)-one]"
27,> 8.00,"COc1nccn2ncc(Oc3cnc4nc(Nc5cc(C(F)(F)F)cn(C)c5=O)n(C)c4c3Cl)c12 [Example I-224, 3-((7-chloro-6-((4-methoxypyrazolo[1,5-a]pyrazin-3-yl)oxy)-1-methyl-1H-imidazo[4,5-b]pyridin-2-yl)amino)-1-methyl-5-(trifluoromethyl)pyridin-2(1H)-one]"
